Assay results: patent US20190053489A1, “ANTIMICROBIAL COMPOSITION” (NATIONAL UNIVERSITY CORPORATION TOKYO MEDICAL AND DENTAL …, priority 2016, published 2019)

Tested on: MRSA IID 1677
Test: Proliferation suppression against MRSA in a standard medium (colony count method)
Format: cell-based, Methicillin-Resistant Staphylococcus Aureus (MRSA)
Procedure: This test employed MRSA IID 1677, and this microbe strain was inoculated in 20 ml of a normal broth medium (manufactured by Eiken Chemical Co., Ltd., ‘Eiken’) for overnight shake culture at 37° C. The cultured microbial solution was collected by centrifugation (3000 rpm, 10 minutes), suspended with sterilized water, and then diluted with sterilized water so that the optical density would satisfy OD600=1.0. The resultant was diluted 2000 times (corresponding to 10^6 CFU/ml) to prepare a reaction microbial solution.
Here, the TSB test medium samples were prepared using 10 ml of TSB medium (BD BBL™) added with 200 μl of 1 M phosphate buffer (pH 7.0), followed by further addition of
(1) 10 ml of sterilized water, ([…]), (3) 10 ml of lysozyme alone with a concentration of 0.2% (the concentration after addition was 0.1%), (4) 10 ml of chitosan alone with a concentration of 0.2% (the concentration after addition was 0.1%), and (5) 10 ml of the mixture of lysozyme and chitosan with a concentration of 0.2% (the concentration of each after addition was 0.1%).
After that, 100 μl was extracted and seeded on the MH agar medium, and the number of colonies produced was observed (colony count method). […] Note that the results of FIG. 7 are each the average value of the values obtained by carrying out the colony count method three times.
Note that the results of FIG. 8 are each the average value obtained with two replicate samples.

Substance: lysozyme-chitosan complex: complex of lysozyme and water-soluble chitosan (molecular weight 14000 Da) bound to each other through the Maillard reaction
- proliferation suppression effect against MRSA (ratio of colonies produced 6 hours later to control) (standard TSB medium with phosphate buffer pH 7.0, complex 0.2%, lysozyme, chitosan, each of mixture 0.1%, FIG. 7): marked improvement effect compared to chitosan alone and the mixture of lysozyme and chitosan
- proliferation suppression effect against MRSA 9 hours later (standard TSB medium, any of the complex concentrations 0.01%, 0.05%, 0.1%, 0.2%, FIG. 8): sufficient proliferation suppression effect
- ratio of the number of MRSA colonies produced to the control (standard TSB medium, complex 0.2%, past 6 hours, FIG. 8): ~0%
